Assay results from patent publication US11583555B2, “Genetic re-engineering of immune cells to improve metabolic fitness for immunotherapy” (University of Pittsburgh—Of the Commonwealth System of …, priority 2016, dated 2023).

Columns and labels:
Assay type in all cases: in vivo
[1] = tested on: tumor-infiltrating Treg cells; assay: Treg depletion with diphtheria toxin in B16-bearing Foxp3^DTR.GFP mice; conditions: 3 days diphtheria toxin
[2] = tested on: Akt; assay: Akt inhibitor treatment of B16-bearing mice, PGC1α levels and mitochondrial mass of CD8^+ T cells; conditions: short-term treatment (72 h)
Experimental: FIGS. 11A-11H. Intratumoral T cell mitochondrial biogenesis is repressed by chronic Akt-mediated repression of PGC1α (A) Flow cytogram (left) and tabulated data (right) of PGC1α intracellular staining in CD8^+ T cells isolated from nondraining or draining LNs or TIL preparations from B16 or MC38 bearing mice. Shaded histogram indicates isotype control. (B) Flow cytogram of PGC1α expression in CTV-labeled, naïve OT-I T cells adoptively transferred into B16^OVA bearing mice for 72 h. Tabulation for multiple experiments is to the right. (C) Flow cytogram of cytokine production of congenically mismitached WT OT-I T cells transferred into B16^OVA-bearing or VV^OVA-infected mice for 96 h, then restimulated with SIINFEKL peptide. (D) Representative and tabulated phospho-Akt (S473) and phospho-Foxo1 (T24)/3a(T32) staining of the indicated cell populations in mice bearing 14-day B16 tumors. MFI is reported. (E) Representative flow cytogram and tabulated data indicating PGC1α staining in pAkt low or high cells. (F) MFI of pAkt staining in naïve OT-I T cells, or OT-I T cells transferred for 3 or 6 days into a B16^OVA-bearing or VV^OVA infected mouse. […] Results are representative of 5 (A,B, D) 3 (C, E, G, H) or 2 (F) independent experiments. *, p<0.05, **p<0.01, ***p<0.001 by unpaired t-test (A, F, G, H) or paired t-test (D, E, G, H). ***p<0.001 by two-way ANOVA. Error bars indicate s.e.m. […]

[3] = tested on: tumor infiltrating T cells; assay: m-divi-1 treatment of tumor-bearing mice after OT-I adoptive transfer, mitochondrial staining; conditions: tumor-bearing mice treated 24 h after adoptive transfer
Experimental: FIGS. 5A-5E. T cell mitochondrial dysfunction is induced upon entry into the tumor microenvironment. (A) Representative flow cytogram and tabulated data of LN and TIL of naïve, CTV-labeled, OT-I (Thy 1.1^+) CD8^+ T cells transferred into B16^OVA-bearing mice (5-7 mm tumors), or the spleens of the same progenitor cells transferred into B6 mice infected with 1×10^6 PFU VV^OVA for 72 h. Cells were stained with MitoTracker Deep Red FM. (B) As in A, but with the mitochondrial membrane potential dye TMRE. (C) As in A, but with the cellular ROS indicator DCFDA. (D) As in A, but cells were permeabilized and stained intracellularly for LC3B. (E) Representative data from experiments as in A, but some mice received mitophagy inhibitor m-divi-1. Results represent the mean of three or four independent experiments, with n=7-9 mice per group. **p<0.01, ***p<0.001, ***p<0.0001 by two-way ANOVA. Error bars indicate s.e.m.
Single-cell metabolic capacity was assayed by flow cytometry. Specifically, 2-NBD-glucose (Cayman Chemical) and MitoTracker FM dyes (ThermoFisher) were utilized to assay the propensity of cells to take up glucose or generate intermediates via their mitochondria. […]
As mitochondrial depolarization can lead to autophagy, it was determined whether mitophagy may be mediating the loss of mitochondria in tumor-infiltrating T cells.

diphtheria toxin
CD8^+ T cell MitoTracker FM staining [1]: no significant increases in CD8^+ T cell MitoTracker FM staining
depletion of tumor-infiltrating Treg cells [1]: near complete depletion of tumor-infiltrating Treg cells

O=c1[nH]c2ccccc2n1C1CCN(Cc2ccc(-c3nc4cc5[nH]cnc5cc4nc3-c3ccccc3)cc2)CC1 [Akt inhibitor, Akt inhibitor VIII]
PGC1α and mitochondrial sufficiency (metabolically suppressive phenotype) [2]: partial rescue of the metabolically suppressive phenotype

COc1cc(-n2c(=S)[nH]c3ccccc3c2=O)c(Cl)cc1Cl [m-divi-1]
mitochondrial staining in tumor infiltrating T cells [3]: failed to improve mitochondrial staining
